Values belong to the molecule of their own block, whether it stands above or below them.
Key:
[1] = target: T1, hGlyT2 transporter (full-length) (Homo sapiens, UniProt Q9Y345, G24S/N188D/Q362L/R74W/S155G/T582S/V431A); conditions: full-length hGlyT2, COS-7 cells
T1 sequence (Q9Y345 1-797 G24S/R74W/S155G/N188D/Q362L/V431A/T582S): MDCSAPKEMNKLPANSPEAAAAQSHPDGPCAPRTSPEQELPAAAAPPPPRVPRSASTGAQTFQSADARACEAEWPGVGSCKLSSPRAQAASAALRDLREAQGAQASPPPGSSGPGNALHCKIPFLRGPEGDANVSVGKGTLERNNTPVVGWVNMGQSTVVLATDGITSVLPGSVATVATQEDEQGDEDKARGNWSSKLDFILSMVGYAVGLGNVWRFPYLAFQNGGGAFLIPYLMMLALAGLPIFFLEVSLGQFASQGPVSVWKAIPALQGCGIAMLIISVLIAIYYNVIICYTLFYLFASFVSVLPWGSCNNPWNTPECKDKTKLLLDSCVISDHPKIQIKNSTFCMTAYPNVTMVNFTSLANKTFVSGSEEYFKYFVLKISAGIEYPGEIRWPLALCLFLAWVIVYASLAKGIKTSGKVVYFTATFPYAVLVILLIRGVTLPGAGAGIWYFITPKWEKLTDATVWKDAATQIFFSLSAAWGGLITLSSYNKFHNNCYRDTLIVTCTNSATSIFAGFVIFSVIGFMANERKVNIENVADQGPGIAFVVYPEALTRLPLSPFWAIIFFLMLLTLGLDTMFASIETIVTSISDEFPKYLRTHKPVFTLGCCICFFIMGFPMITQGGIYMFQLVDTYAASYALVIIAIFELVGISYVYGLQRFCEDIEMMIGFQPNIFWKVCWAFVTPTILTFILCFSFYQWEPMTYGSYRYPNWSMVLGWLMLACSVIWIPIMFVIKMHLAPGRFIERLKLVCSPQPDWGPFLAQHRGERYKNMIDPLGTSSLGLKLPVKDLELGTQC

[2] = target: T2, truncated hGlyT2 (start at Met-154, lacking the first 153 amino acids) (Homo sapiens, UniProt Q9Y345, N188D/Q362L/S155G/T582S/V431A); conditions: truncated hGlyT2, COS-7 cells
T2 sequence (Q9Y345 154-797 S155G/N188D/Q362L/V431A/T582S): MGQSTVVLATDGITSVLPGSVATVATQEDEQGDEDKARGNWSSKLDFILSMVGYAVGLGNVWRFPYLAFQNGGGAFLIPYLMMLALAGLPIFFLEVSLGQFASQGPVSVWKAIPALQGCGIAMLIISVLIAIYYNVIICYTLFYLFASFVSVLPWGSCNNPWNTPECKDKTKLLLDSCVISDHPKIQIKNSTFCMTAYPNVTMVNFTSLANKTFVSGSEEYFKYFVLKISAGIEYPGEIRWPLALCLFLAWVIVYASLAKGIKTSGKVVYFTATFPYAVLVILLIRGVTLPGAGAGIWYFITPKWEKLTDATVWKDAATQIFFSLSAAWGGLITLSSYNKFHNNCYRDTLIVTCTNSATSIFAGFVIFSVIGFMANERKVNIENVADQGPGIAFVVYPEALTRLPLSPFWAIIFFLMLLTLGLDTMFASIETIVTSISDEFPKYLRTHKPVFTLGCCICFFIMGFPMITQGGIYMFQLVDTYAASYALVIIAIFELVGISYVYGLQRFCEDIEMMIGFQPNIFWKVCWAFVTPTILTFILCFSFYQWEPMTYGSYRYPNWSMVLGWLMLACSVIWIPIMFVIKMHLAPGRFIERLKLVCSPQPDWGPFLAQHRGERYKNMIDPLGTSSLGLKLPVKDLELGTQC

[3] = target: T3, rat GlyT2 (Rattus norvegicus, UniProt P58295); conditions: Liu et al. 1993, cited from earlier work
T3 sequence (P58295 1-799): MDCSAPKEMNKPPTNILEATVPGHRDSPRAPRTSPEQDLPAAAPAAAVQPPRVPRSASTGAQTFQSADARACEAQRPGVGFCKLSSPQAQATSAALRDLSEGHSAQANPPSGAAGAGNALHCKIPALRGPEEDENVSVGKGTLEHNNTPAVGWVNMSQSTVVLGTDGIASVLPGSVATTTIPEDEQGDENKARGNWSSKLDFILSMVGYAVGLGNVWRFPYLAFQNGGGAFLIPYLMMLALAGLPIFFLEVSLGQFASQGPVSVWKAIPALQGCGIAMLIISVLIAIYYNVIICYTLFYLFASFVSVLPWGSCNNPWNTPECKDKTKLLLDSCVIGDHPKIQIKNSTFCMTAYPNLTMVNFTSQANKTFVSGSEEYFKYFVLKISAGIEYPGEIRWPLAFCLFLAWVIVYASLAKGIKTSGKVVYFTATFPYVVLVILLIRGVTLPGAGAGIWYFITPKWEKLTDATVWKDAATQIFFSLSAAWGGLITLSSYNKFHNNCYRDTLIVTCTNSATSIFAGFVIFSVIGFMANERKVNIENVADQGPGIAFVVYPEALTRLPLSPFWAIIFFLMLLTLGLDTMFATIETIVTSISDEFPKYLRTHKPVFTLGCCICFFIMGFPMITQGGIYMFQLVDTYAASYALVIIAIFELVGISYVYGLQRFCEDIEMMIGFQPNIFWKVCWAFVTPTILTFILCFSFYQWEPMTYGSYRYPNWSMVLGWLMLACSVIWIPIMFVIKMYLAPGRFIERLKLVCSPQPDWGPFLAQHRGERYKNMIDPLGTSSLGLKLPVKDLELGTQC

[4] = target: T4, GlyT1 (Homo sapiens, UniProt P48067); conditions: sarcosine concentration exceeds 200 μM; cited from earlier work
T4 sequence (P48067 1-706): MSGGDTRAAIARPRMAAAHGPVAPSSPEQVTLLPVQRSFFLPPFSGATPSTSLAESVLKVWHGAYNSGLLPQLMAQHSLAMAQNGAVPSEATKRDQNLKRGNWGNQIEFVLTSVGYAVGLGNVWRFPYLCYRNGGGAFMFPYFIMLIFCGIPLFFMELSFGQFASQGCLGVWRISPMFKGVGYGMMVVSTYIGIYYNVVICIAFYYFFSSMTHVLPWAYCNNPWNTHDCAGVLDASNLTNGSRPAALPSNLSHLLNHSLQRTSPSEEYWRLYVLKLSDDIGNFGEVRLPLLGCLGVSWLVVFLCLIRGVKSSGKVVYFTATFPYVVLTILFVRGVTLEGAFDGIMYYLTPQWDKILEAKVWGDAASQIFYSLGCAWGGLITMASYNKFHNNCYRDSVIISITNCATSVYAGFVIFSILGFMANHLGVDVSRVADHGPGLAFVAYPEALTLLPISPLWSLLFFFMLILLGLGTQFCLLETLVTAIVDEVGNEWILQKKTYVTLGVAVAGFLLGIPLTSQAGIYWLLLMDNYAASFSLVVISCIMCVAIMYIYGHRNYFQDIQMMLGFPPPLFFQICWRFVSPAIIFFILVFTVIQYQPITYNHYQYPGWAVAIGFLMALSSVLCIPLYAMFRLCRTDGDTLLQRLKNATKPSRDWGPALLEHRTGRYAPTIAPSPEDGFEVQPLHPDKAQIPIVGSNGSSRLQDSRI

[5] = substrate: NCC(=O)O; assay: cells, lysate or membranes; conditions: pH 7.4
[6] = 1 mM sarcosine, 15 min pretreatment

Vmax of glycine uptake (Eadie-Hofstee) [1]: 190±3 pmol glycine/mg protein/min
Vmax of glycine uptake [2]: 67±3 pmol glycine/mg protein/min
Molecule: NCC(=O)O [glycine]
Km ([3]; read-out: Km reported for rat GlyT2): 13 µM

reduction of glycine uptake [1, 6]: less than 15%
effect of increasing concentrations of sarcosine on glycine uptake (FIG. 5) [1]: insensitive to sarcosine inhibition
reduction of glycine uptake [2, 6]: less than 15%
effect of increasing concentrations of sarcosine on glycine uptake (FIG. 5) [2]: insensitive to sarcosine inhibition
Molecule: CNCC(=O)O [sarcosine]
inhibition of rat GlyT2-mediated glycine uptake ([3]; sarcosine 1 mM): 10-20%
inhibition of GlyT1-mediated glycine uptake [4]: almost completely inhibited

B1: truncated hGlyT2 (start at Met-154, lacking the first 153 amino acids) (Homo sapiens; N188D/Q362L/S155G/T582S/V431A) (protein)
chain: MGQSTVVLATDGITSVLPGSVATVATQEDEQGDEDKARGNWSSKLDFILSMVGYAVGLGNVWRFPYLAFQNGGGAFLIPYLMMLALAGLPIFFLEVSLGQFASQGPVSVWKAIPALQGCGIAMLIISVLIAIYYNVIICYTLFYLFASFVSVLPWGSCNNPWNTPECKDKTKLLLDSCVISDHPKIQIKNSTFCMTAYPNVTMVNFTSLANKTFVSGSEEYFKYFVLKISAGIEYPGEIRWPLALCLFLAWVIVYASLAKGIKTSGKVVYFTATFPYAVLVILLIRGVTLPGAGAGIWYFITPKWEKLTDATVWKDAATQIFFSLSAAWGGLITLSSYNKFHNNCYRDTLIVTCTNSATSIFAGFVIFSVIGFMANERKVNIENVADQGPGIAFVVYPEALTRLPLSPFWAIIFFLMLLTLGLDTMFASIETIVTSISDEFPKYLRTHKPVFTLGCCICFFIMGFPMITQGGIYMFQLVDTYAASYALVIIAIFELVGISYVYGLQRFCEDIEMMIGFQPNIFWKVCWAFVTPTILTFILCFSFYQWEPMTYGSYRYPNWSMVLGWLMLACSVIWIPIMFVIKMHLAPGRFIERLKLVCSPQPDWGPFLAQHRGERYKNMIDPLGTSSLGLKLPVKDLELGTQC
Km ([5]; other: truncated hGlyT2, COS-7 cells, 37.0 °C): 9 ± 1 µM

B2: hGlyT2 transporter (full-length) (Homo sapiens; G24S/N188D/Q362L/R74W/S155G/T582S/V431A) (protein)
chain: MDCSAPKEMNKLPANSPEAAAAQSHPDGPCAPRTSPEQELPAAAAPPPPRVPRSASTGAQTFQSADARACEAEWPGVGSCKLSSPRAQAASAALRDLREAQGAQASPPPGSSGPGNALHCKIPFLRGPEGDANVSVGKGTLERNNTPVVGWVNMGQSTVVLATDGITSVLPGSVATVATQEDEQGDEDKARGNWSSKLDFILSMVGYAVGLGNVWRFPYLAFQNGGGAFLIPYLMMLALAGLPIFFLEVSLGQFASQGPVSVWKAIPALQGCGIAMLIISVLIAIYYNVIICYTLFYLFASFVSVLPWGSCNNPWNTPECKDKTKLLLDSCVISDHPKIQIKNSTFCMTAYPNVTMVNFTSLANKTFVSGSEEYFKYFVLKISAGIEYPGEIRWPLALCLFLAWVIVYASLAKGIKTSGKVVYFTATFPYAVLVILLIRGVTLPGAGAGIWYFITPKWEKLTDATVWKDAATQIFFSLSAAWGGLITLSSYNKFHNNCYRDTLIVTCTNSATSIFAGFVIFSVIGFMANERKVNIENVADQGPGIAFVVYPEALTRLPLSPFWAIIFFLMLLTLGLDTMFASIETIVTSISDEFPKYLRTHKPVFTLGCCICFFIMGFPMITQGGIYMFQLVDTYAASYALVIIAIFELVGISYVYGLQRFCEDIEMMIGFQPNIFWKVCWAFVTPTILTFILCFSFYQWEPMTYGSYRYPNWSMVLGWLMLACSVIWIPIMFVIKMHLAPGRFIERLKLVCSPQPDWGPFLAQHRGERYKNMIDPLGTSSLGLKLPVKDLELGTQC
Km ([5]; other: full-length hGlyT2, COS-7 cells, 15 min at 37° C.): 10 ± 0.4 µM

— patent publication US6416975B1 (Gliatech, Inc., priority 1998, dated 2002)
